We go through seven compounds from US12653809B2, “Urea, amide, and substituted heteroaryl compounds for CBL-B inhibition” (Nurix Therapeutics, Inc., priority 2019, dated 2026).

Assay [1] addresses T1, Cbl-b (truncated variant, UniProt number Q13191) (Homo sapiens, UniProt Q13191).
T1 construct: made in house
Description: Cbl-b displacement assay (Cbl-b inhibition assay, fluorophore-labeled probe). It is filed as binding. The source says:
As described in Biological Example 1A, a Cbl-b activity assay (Cbl-b inhibition assay) used to measure the IC50 values for Cbl-b inhibition uses a mixture comprising candidate compound, Cbl-b (truncated, with an Avitag, and biotinylated), a fluorescently-labeled E2 enzyme UbcH5B labelled with ubiquitin conjugated to BODIPY-fluorescein (UbcH5B-Ub), streptavidin-terbium, and assay buffer. In one embodiment, the Cbl-b activity assay (Cbl-b inhibition assay) used to measure IC50 for inhibition of Cbl-b uses the conditions described in Biological Example 1A with 12 nM Cbl-b. […] In another embodiment, the Cbl-b activity assay (Cbl-b inhibition assay) used to measure IC50 for inhibition of Cbl-b uses the conditions described in Biological Example 1B, with candidate compound, 0.125 nM Cbl-b (truncated, with an avitag, and biotinylated), fluorescently labelled inhibitor probe, and assay buffer. Displacement of the inhibitor probe indicates Cbl-b activity.
Candidate compounds were evaluated for their ability to bind and inhibit Cbl-b, an E3 ubiquitin-protein ligase, as evidenced by their ability to displace a fluorophore-labeled probe (Example 168) bound to Cbl-b.
The ability of candidate compounds to displace a known inhibitor and thereby inhibit Cbl-b activity was measured by monitoring the interaction of Cbl-b with a fluorophore-labeled probe in the presence of the candidate compound. A truncated variant of Cbl-b (UniProt number Q13191; SEQ ID NO:1) containing an Avitag at its N-terminus was co-expressed with BirA biotin ligase and purified using a standard protocol (see Dou et al., Nature Structural and Molecular Biology, 8: 982-987, 2013; Avidity LLC).
Fluorescently-labeled inhibitor probe was synthesized and tagged with BODIPY FL (Example 168). Cbl-b displacement assays were performed in a 384-well plate at room temperature in a 10 μL reaction volume by pre-incubating 0.125 nM Cbl-b (final concentration) in an assay buffer containing 20 mM HEPES pH 7.5, 150 mM NaCl, 0.01% Triton X-100, 0.01% BSA, and 0.5 mM TCEP in the presence of a candidate compound in 1% DMSO (final concentration) for one hour. After incubation in the presence of the candidate compound, the plate was incubated for an additional one hour in the presence of an approximate EC40 binding saturation consisting of 150 nM fluorescently-labeled inhibitor probe and 2 nM Streptavidin-Terbium (Cisbio) (final concentrations). Following the one hour incubation, the plates were read for TR-FRET signal at 520/620 nm using an Envision plate reader (Perkin Elmer).
Compounds were ranked into bins A through D as follows for IC50: A indicates <0.1 μM, B indicates 0.1 μM≤IC50<1 μM, C indicates 1 μM≤IC50<5 μM, and D indicates 5 μM≤IC50.

The target of assay [2] is T1, Cbl-b. Description: Cbl-b activity assay (TR-FRET, interaction of Cbl-b with UbcH5B-Ub). It counts as biochemical. (In general: Time-resolved FRET reads energy transfer from a long-lived donor to a nearby acceptor.)
Where [3] appears, read: Biological Example 1B, read-out: IC50 values in the Cbl-b inhibition assay of Biological Example 1B.
The mark [4] stands for this setting: displacement assay, 0.125 nM Cbl-b, 150 nM fluorescently-labeled inhibitor probe, read-out: Cbl-b activity IC50.
[5] abbreviates: high conditions: 100 mM NaCl, 60 nM Src kinase, 12 nM Cbl-b, read-out: Cbl-b activity IC50.

Each structure is given as a SMILES string.

T1 sequence (Q13191 36-427): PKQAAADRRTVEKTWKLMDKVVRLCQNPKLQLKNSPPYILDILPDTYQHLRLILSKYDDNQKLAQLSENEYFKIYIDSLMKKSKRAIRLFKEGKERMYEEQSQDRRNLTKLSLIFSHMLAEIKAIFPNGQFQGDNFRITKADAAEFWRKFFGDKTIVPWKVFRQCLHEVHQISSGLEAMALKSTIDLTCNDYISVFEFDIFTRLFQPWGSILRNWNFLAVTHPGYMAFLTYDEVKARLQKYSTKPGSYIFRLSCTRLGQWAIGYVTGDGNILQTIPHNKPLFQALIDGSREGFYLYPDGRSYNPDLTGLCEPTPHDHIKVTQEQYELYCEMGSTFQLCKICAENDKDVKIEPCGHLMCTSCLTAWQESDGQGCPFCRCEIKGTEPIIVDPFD

With `Cn1cnnc1CC1(c2cccc(-c3n[nH]c4c(CN5CC[C@H](F)C5)cc(C(F)(F)F)nc34)c2)COC1` [Example 114, (S)-7-((3-fluoropyrrolidin-1-yl)methyl)-3-(3-(3-((4-methyl-4H-1,2,4-triazol-3-yl)methyl)oxetan-3-yl)phenyl)-5-(trifluoromethyl)-1H-pyrazolo[4,3-b]pyridine], the half-inhibitory concentration (IC50) on Cbl-b [1] (setting [3]) and on Cbl-b [1] (setting [4]) was < 0.1 µM each time.
In the case of `Cn1cnnc1[C@@H](c1cccc(-c2n[nH]c3c(CN4CC[C@H](F)C4)cc(C(F)(F)F)nc23)c1)C1CCC1` [Example 115, 3-(3-((R)-cyclobutyl(4-methyl-4H-1,2,4-triazol-3-yl)methyl)phenyl)-7-(((S)-3-fluoropyrrolidin-1-yl)methyl)-5-(trifluoromethyl)-1H-pyrazolo[4,3-b]pyridine], the IC50 at Cbl-b [1] (setting [3]) and at Cbl-b [1] (setting [4]) was < 0.1 µM throughout.
On to `CNS(=O)(=O)c1ccc(NC(=O)Nc2cccc([C@H](C)Sc3nncn3C)c2)cc1` [Example 163, (S)—N-methyl-4-(3-(3-(1-((4-methyl-4H-1,2,4-triazol-3-yl)thio)ethyl)phenyl)ureido)benzenesulfonamide], for which, at Cbl-b [2] (setting [5]), the IC50 (commonly the concentration at which inhibition is half-maximal) is ≥ 5 µM.
The same measure, in the same setting: the value for `C[C@H](Sc1nncn1C)c1cccc(NC(=O)N2CCC2)c1` [Example 164, (S)—N-(3-(1-(4-methyl-4H-1,2,4-triazol-3-ylthio)ethyl)phenyl)azetidine-1-carboxamide] was ≥ 5 µM; that for `C[C@H](Sc1nncn1C)c1cccc(NC(=O)N2CCS(=O)(=O)CC2)c1` [Example 165, (S)—N-(3-(1-((4-methyl-4H-1,2,4-triazol-3-yl)thio)ethyl)phenyl)thiomorpholine-4-carboxamide 1,1-dioxide] was ≥ 5 µM; that for `Cn1cnnc1[C@H]1C[C@H]1c1cccc(NC(=O)N2CCOc3cccnc32)c1` [Example 166, N-(3-((1R,2S)-2-(4-methyl-4H-1,2,4-triazol-3-yl)cyclopropyl)phenyl)-2,3-dihydro-4H-pyrido[3,2-b][1,4]oxazine-4-carboxamide] was ≥ 5 µM.
Take `CC(Sc1nncn1C)c1cccc(-n2cc(-c3ccccc3)nn2)c1` (stereo not shown) [Example 167, 1-(3-(1-((4-methyl-4H-1,2,4-triazol-3-yl)thio)ethyl)phenyl)-4-phenyl-1H-1,2,3-triazole]: the 50% inhibitory concentration (IC50) was 1 to 5 µM on Cbl-b [2] (Biological Example 1A, low or high conditions not stated, read-out: IC50 values in the Cbl-b inhibition assay of Biological Example 1A) and 1 to 5 µM on Cbl-b [2] (setting [5]).
